Experimental data as given in ChEMBL document CHEMBL4613261, “Metabolic and Pharmaceutical Aspects of Fluorinated Compounds” (J Med Chem, 2020).

Key:
[1] = Elimination half life in human at 25 to 1200 mg, po administered as suspension measured after 5 to 816 hrs by HPLC-MS/MS analysis; assay type: ADME, organism-based; conditions: in vivo, read-out: beta t1/2
[2] = target: T1, Alanine racemase, biosynthetic (Escherichia coli K-12, UniProt P0A6B4); assay: Substrate activity at Escherichia coli B alanine racemase assessed as 2-oxobut-3-enoic acid formation; assay type: ADME
[3] = target: T1, Alanine racemase, biosynthetic; assay: Substrate activity at Escherichia coli B alanine racemase assessed as (S)-6-amino-2-((E)-1-carboxy-1-((E)-(3-hydroxy-2-methyl-5-(phosphonooxymethyl)pyridin-4-yl)methyleneamino)prop-1-en-2-ylamino)hexanoic acid formation; assay type: ADME
[4] = target: T1, Alanine racemase, biosynthetic; assay: Substrate activity at Escherichia coli B alanine racemase assessed as (2S)-6-amino-2-(((Z)-1-carboxyallylideneamino)(3-hydroxy-2-methyl-5-(phosphonooxymethyl)pyridin-4-yl)methylamino)hexanoic acid adduct formation; assay type: ADME
[5] = Drug degradation assessed as 4-[[9-[(2-fluoro-4-pyridyl)methyl]-10-oxo-9-anthryl]methyl]-1H-pyridin-2-one metabolite formation by measuring relative abundance measured after preserving compound for 6 months at 40 degreeC by LC-MS/MS analysis; assay type: physicochemical; conditions: 4383 h
[6] = Drug degradation in presence of 1% magnesium stearate and lactose monohydrate measured after preserving compound for 1 to 3 months at 40 degreeC by LC-MS/MS analysis; assay type: physicochemical; conditions: read-out: Drug degradation
[7] = Prodrug conversion in Sprague-Dawley rat assessed as acyclovir recovery in urine at 0.1 mmol/kg, po measured over 48 hrs by HPLC analysis; assay type: ADME, organism-based; conditions: in vivo
[8] = Lipophilicity, logD of the compound; assay type: physicochemical; conditions: octanol/water
[9] = Volume of distribution at steady state in Sprague-Dawley rat at 0.5 mg/kg, iv administered as single dose measured after 0.083 to 48 hrs; assay type: ADME, organism-based; conditions: in vivo, read-out: Vdss
[10] = Volume of distribution at steady state in rhesus monkey at 0.1 mg/kg, iv administered as single dose measured after 0.083 to 48 hrs; assay type: ADME, organism-based, Macaca mulatta; conditions: in vivo, read-out: Vdss
[11] = Drug recovery in bile duct-cannulated Sprague-Dawley rat feces at 10 mg/kg, po administered as single dose using 14C labelled compound measured after 48 hrs; assay type: ADME, organism-based; conditions: in vivo
[12] = Drug recovery in bile duct-cannulated rhesus monkey feces at 10 mg/kg, po administered as single dose using 14C labelled compound measured after 96 hrs; assay type: ADME, organism-based, Macaca mulatta; conditions: in vivo
[13] = Drug metabolism assessed as first order rate constant for 6-formyltryptophan formation; assay type: physicochemical
[14] = Drug metabolism in human; assay type: ADME; conditions: read-out: Drug metabolism
[15] = Photodegradation of compound in deionized H20 at 10 uM by HPLC analysis; assay type: physicochemical; conditions: deionized water
[16] = Half life in human at 0.25 mg, iv administered as single dose measured up to 168 hrs; assay type: ADME, organism-based; conditions: in vivo
[17] = Volume of distribution in human at 0.25 mg, iv administered as single dose measured up to 168 hrs; assay type: ADME, organism-based; conditions: in vivo
[18] = Oral bioavailability in human at 2 mg administered as single dose and measured up to 168 hrs; assay type: ADME, organism-based; conditions: in vivo
[19] = Half life in rat at 10 mg/kg, iv; assay type: ADME, organism-based; conditions: in vivo

T1 sequence (P0A6B4 whole entry): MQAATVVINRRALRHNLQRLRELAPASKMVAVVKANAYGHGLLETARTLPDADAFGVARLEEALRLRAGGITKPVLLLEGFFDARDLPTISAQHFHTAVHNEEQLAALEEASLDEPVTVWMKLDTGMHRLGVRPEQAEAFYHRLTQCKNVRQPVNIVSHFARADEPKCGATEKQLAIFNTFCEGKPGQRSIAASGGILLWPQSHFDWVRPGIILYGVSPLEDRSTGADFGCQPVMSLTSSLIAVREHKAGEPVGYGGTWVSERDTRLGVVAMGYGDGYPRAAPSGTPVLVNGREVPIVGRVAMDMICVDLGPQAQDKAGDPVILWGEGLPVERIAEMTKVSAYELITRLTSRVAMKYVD

`Cc1cc(Nc2ccc(S(F)(F)(F)(F)F)cc2)n2nc(C(C)(F)F)nc2n1` [DSM-265] showed a half-life [1] of 3.58 to 4.92 days.

Work on `C=C=C(/N=C/c1c(COP(=O)(O)O)cnc(C)c1O)C(=O)O` yielded an Activity [2] of 57%, an Activity [3] of 12% and an Activity [4] of 31%.

`O=C1c2ccccc2C(Cc2ccnc(F)c2)(Cc2ccnc(F)c2)c2ccccc21` gave an Activity [5] of 0.5% and a degraded [6] of under 0.1%.

Work on `CC(C)C(=O)OCCOCn1cnc2c(F)nc(N)nc21` yielded a Drug recovery [7] of 51%.

In the case of `COc1cc(F)c(C(C)C)cc1-c1ccc(C(F)(F)F)cc1CN1C(=O)O[C@H](c2cc(C(F)(F)F)cc(C(F)(F)F)c2)[C@@H]1C` [ANACETRAPIB], the logD [8] is reported as 7.1, the Vd [9] is reported as 1.1 L/kg and the Vd [10] is reported as 0.3 L/kg. For the same molecule, the Drug recovery [11] was 80% and the Drug recovery [12] was 90%.

Molecule `N[C@@H](Cc1c[nH]c2cc(C(F)F)ccc12)C(=O)O` has a K [13] of 0.0039 min⁻¹.

With `FCOC(C(F)(F)F)C(F)(F)F` [SEVOFLURANE] the metabolised [14] was 2 to 5%.

In the case of `CNCCC(Oc1ccc(C(F)(F)F)cc1)c1ccccc1` (centres undefined) [FLUOXETINE], the half-life at 10 µM [15] is reported as 2.3 days.

In the case of `C[C@@H]1C[C@H]2[C@@H]3C[C@H](F)C4=CC(=O)C=C[C@]4(C)[C@@]3(F)[C@@H](O)C[C@]2(C)[C@@]1(OC(=O)c1ccco1)C(=O)SCF` [FLUTICASONE FUROATE], the half-life [16] is reported as 918 min, the Vd [17] is reported as 642 L and the bioavailability [18] is reported as 1.6%.

`CCNC(C)Cc1cccc(SC(F)(F)F)c1` (racemic) [TIFLOREX] showed a half-life [19] of 444 min.
